Test results as given in US10053451B2, “Heterocyclic estrogen receptor modulators and uses thereof” (priority 2015, dated 2018).

Key:
Assay type in all cases: cell-based
[1] = tested on: MCF-7 cells; test: Breast Cancer Cell Viability Assay (CellTiter-Glo); conditions: 5 days of compound exposure; for IC50: Homo sapiens, MCF7, 120 h, read-out: MCF7 viab IC50
Experimental: The following day a 10 point, serial 1:5 dilution of each compound was added to the cells in 16 μL at a final concentration ranging from 10-0.00000 μM. After 5 days of compound exposure, 16 μL of CellTiter-GLo (Promega, Madison Wis.) was added to the cells, and the relative luminescence units (RLUs) of each well were determined. CellTiter-Glo added to 32 μL of medium without cells was used to obtain a background value.

[2] = biological target: T1, ER-α (Homo sapiens, UniProt P03372); test: ER-α In Cell Western Assay; conditions: MCF7 cells, 4 hours post compound addition, SP1 anti-ER antibody; read-out: ICW (SP1) max response
T1 construct: MCF7 cells were trypsinized and washed twice; endogenous in cells; host or cells: MCF7 breast cancer cells
T1 sequence (P03372 1-595): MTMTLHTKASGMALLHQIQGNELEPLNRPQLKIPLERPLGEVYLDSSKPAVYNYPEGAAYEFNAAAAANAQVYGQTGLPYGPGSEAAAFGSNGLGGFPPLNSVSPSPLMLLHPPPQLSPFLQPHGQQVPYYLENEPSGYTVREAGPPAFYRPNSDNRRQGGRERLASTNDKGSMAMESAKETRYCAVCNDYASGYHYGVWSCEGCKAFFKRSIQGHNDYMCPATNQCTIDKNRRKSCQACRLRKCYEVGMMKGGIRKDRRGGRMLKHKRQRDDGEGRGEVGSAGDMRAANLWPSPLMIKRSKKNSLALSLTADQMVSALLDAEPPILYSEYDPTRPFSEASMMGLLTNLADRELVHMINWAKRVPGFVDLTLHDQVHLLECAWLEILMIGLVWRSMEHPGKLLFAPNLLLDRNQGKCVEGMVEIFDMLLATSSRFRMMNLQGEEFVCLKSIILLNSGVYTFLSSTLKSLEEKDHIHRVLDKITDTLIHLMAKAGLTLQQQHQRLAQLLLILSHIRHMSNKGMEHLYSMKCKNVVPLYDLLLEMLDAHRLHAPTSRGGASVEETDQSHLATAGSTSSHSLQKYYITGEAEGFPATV
Experimental: MCF7 cells were trypsinized and washed twice in Phenol Red Free RPMI containing 5% Charcoal Dextran Stripped serum with 20 mM HEPES and NEAA, then adjusted to a concentration of 200,000 cells per mL with the same medium. Next, 16 μL of the cell suspension (3200 cells) was added to each well of a poly-D-lysine coated 384 well plate, and the cells were incubated at 37° C. over 4 days to allow the cells to adhere and grow. […] At 4 hours post compound addition, the cells were fixed by adding 16 μL of 30% formalin to the 32 μL of cells and compound (10% formalin final concentration) for 20 minutes. Cells were then washed twice with PBS Tween 0.1% and then permeabilized in PBS 0.1% Triton (50 μl/well) for additional 15 minutes. The PBS 0.1% triton was decanted, and the cells were washed: LI-COR blocking buffer (50 μL/well) was added, the plate was spun at 3000 rpm, and then the blocking buffer was decanted. Additional LI-COR blocking buffer (50 μL/well) was added, and the cells were incubated overnight at 4° C. The blocking buffer was decanted, and the cells were incubated overnight at 4° C. with SP1 (Thermo Scientific) anti-ER rabbit monoclonal antibody diluted 1:1000 in LI-COR blocking buffer/0.1% Tween-20. Wells which were treated with blocking buffer with Tween but no antibody were used as a background control. Wells were washed twice with PBS Tween 0.1% to remove free SP1 antibodies, and the cells were incubated at room temp for 60-90 minutes in LI-COR goat anti-rabbit IRDye™ 800CW (1:1000) and DRAQ5 DNA dye (1:10000 of 5 mM stock solution) diluted in LI-COR blocking buffer containing 0.1% Tween-20 and 0.01% SDS. Cells were then washed with 0.1% Tween-20/PBS three times. Plates were scanned on a LI-COR Odyssey infrared imaging system. Integrated intensities in the 800 nm channel and 700 nm channel were measured to determine levels of ER-α and DNA respectively. Percent ER levels were determined as follows: (Integrated intensity […] sample/integrated intensity 700 nm sample)/(Integrated intensity 800 nm untreated cells/integrated intensity 700 nm untreated cells)×100=% ER levels.

[3] = biological target: T2, estrogen receptor alpha (ESR1) (Homo sapiens, UniProt P03372); test: Breast Cancer Cell ERa High Content Fluorescence Imaging Assay (ER-alpha MCF7 Assay); conditions: MCF7 cells, 4 hours; plateau of maximal effect; DMSO = 0%, 5 nM Fulvestrant = 100% change in ESR1
T2 construct: MCF7 cells were trypsinized and washed twice; endogenous in cells; host or cells: MCF7 breast cancer cells
T2 sequence (P03372 1-595): T1 sequence (P03372 1-595)
Experimental: Cell plates were incubated at 37° C., for 4 hours. Fixation and permeabilization were carried out using a Biotek EL406 plate washer and dispenser as follows. […] Samples were incubated 30 minutes. Well contents was aspirated and 50 uL/well of Phosphate Buffered Saline (PBS) containing 0.5% w/v bovine serum albumen, 0.5% v/v Triton X-100 (Antibody Dilution Buffer) was added to each well. Samples were incubated for 30 minutes. Well contents were aspirated and washed 3 times with 100 uL/well of PBS. Immunofluorescence staining of estrogen receptor alpha (ESR1) was carried out using a Biotek EL406 plate washer and dispenser as follows. […] Samples were incubated for 2 hours at room temperature. Samples were washed 4 times with 100 uL/well of PBS. […] Samples were incubated for 2 hours at room temperature. Samples were washed 3 times with 100 uL/well of PBS using a Biotek EL406. Quantitative fluorescence imaging of ESR1 was carried out using a Cellomics Arrayscan V (Thermo). […] Channel 1 (DNA stain) was used to define the nuclear region (Circ). […] The “Robust Fit” method was used to define the inflexion point of curve (EC50) and the plateau of the maximal effect (Sinf).

IC50 [1] [nM]	Emax [2] [%]	ER-alpha MCF7 Sinf (%) [3] [%]	Structure (SMILES)	MCF7 viab max response [1]
0.74	83.4		CC1=C(c2ccc(O)cc2F)C(c2ccc(OC[C@H](C)N3CC[C@@H](C)C3)cn2)Oc2ccc(O)cc21 (stereo partly drawn) [Example 10, 3-(2-Fluoro-4-hydroxyphenyl)-4-methyl-2-(5-((S)-2-((R)-3-methylpyrrolidin-1-yl)propoxy)pyridin-2-yl)-2H-chromen-6-ol]	70.9
17	74.1		CC1=C(c2ccc3cn[nH]c3c2)C(c2ccc(OC[C@H](C)N3CC[C@@H](C)C3)cc2)Oc2ccc(O)cc21 (stereo partly drawn) [Example 11, 3-(1H-Indazol-6-yl)-4-methyl-2-(4-((S)-2-((R)-3-methylpyrrolidin-1-yl)propoxy)phenyl)-2H-chromen-6-ol]	55.8
1.03	88		CC1=C(c2ccc(O)c(F)c2)C(c2ccc(OC[C@H](C)N3CC[C@@H](C)C3)cn2)Oc2ccc(O)cc21 (stereo partly drawn) [Example 9, 3-(3-Fluoro-4-hydroxyphenyl)-4-methyl-2-(5-((S)-2-((R)-3-methylpyrrolidin-1-yl)propoxy)pyridin-2-yl)-2H-chromen-6-ol]	71.6
1.36	85.9		CC1=C(c2ccc(O)cc2)C(c2ccc(OC[C@H](C)N3CC[C@@H](C)C3)cn2)Oc2ccc(O)cc21 (stereo partly drawn) [Example 8, 3-(4-Hydroxyphenyl)-4-methyl-2-(5-((S)-2-((R)-3-methylpyrrolidin-1-yl)propoxy)pyridin-2-yl)-2H-chromen-6-ol]	69.3
0.66	83.3		CC1=C(c2cccc(O)c2)C(c2cnc(OC[C@H](C)N3CC[C@@H](C)C3)cn2)Oc2ccc(O)cc21 (stereo partly drawn) [Example 3, 3-(3-Hydroxyphenyl)-4-methyl-2-(5-((S)-2-((R)-3-methylpyrrolidin-1-yl)propoxy)pyrazin-2-yl)-2H-chromen-6-ol]	61.1
0.13	76.1		CC1=C(c2cccc(O)c2)C(c2ccc(OC[C@H](C)N3CC[C@@H](C)C3)nc2)Oc2ccc(O)cc21 (stereo partly drawn) [Example 2, 3-(3-Hydroxyphenyl)-4-methyl-2-(6-((S)-2-((R)-3-methylpyrrolidin-1-yl)propoxy)pyridin-3-yl)-2H-chromen-6-ol]	56.9
2.56	74.8		CC1=C(c2ccc3[nH]ncc3c2)C(c2ccc(OC[C@H](C)N3CC[C@@H](C)C3)cc2)Oc2ccc(O)cc21 (stereo partly drawn) [Example 12, 3-(1H-Indazol-5-yl)-4-methyl-2-(4-((S)-2-((R)-3-methylpyrrolidin-1-yl)propoxy)phenyl)-2H-chromen-6-ol]	60.1
7.08	69.9		CC1=C(c2cccc(O)c2)C(c2ccc(OCCN3CCCC3)cn2)Oc2ccc(O)cc21 (stereo not shown) [Example 6, 3-(3-Hydroxyphenyl)-4-methyl-2-(5-(2-(pyrrolidin-1-yl)ethoxy)pyridin-2-yl)-2H-chromen-6-ol]	56.9
1.29	87.1		CC1=C(c2cc(O)c(F)c(F)c2)C(c2ccc(OC[C@H](C)N3CC[C@@H](C)C3)cn2)Oc2ccc(O)cc21 (stereo partly drawn) [Example 7, 3-(3,4-Difluoro-5-hydroxyphenyl)-4-methyl-2-(5-((S)-2-((R)-3-methylpyrrolidin-1-yl)propoxy)pyridin-2-yl)-2H-chromen-6-ol]	72.1
1.23	86.7		CC1=C(c2cccc(O)c2)C(c2ccc(OC[C@H](C)N3CC[C@@H](C)C3)cn2)Oc2ccc(O)cc21 (stereo partly drawn) [Example 5, 3-(3-Hydroxyphenyl)-4-methyl-2-(5-((S)-2-((R)-3-methylpyrrolidin-1-yl)propoxy)pyridin-2-yl)-2H-chromen-6-ol]	64.2
0.46	79.5		CC1=C(c2cccc(O)c2)C(c2ccc(OC[C@H](C)N3CC[C@@H](C)C3)cc2)Oc2c1ccc1[nH]ncc21 (stereo partly drawn) [Example 15, 3-(4-Methyl-2-(4-((S)-2-((R)-3-methylpyrrolidin-1-yl)propoxy)phenyl)-2,7-dihydropyrano[2,3-e]indazol-3-yl)phenol]	65.6
0.9	85.1		CC1=C(c2cccc3[nH]ncc23)C(c2ccc(OC[C@H](C)N3CC[C@@H](C)C3)cc2)Oc2ccc(O)cc21 (stereo partly drawn) [Example 13, 3-(1H-Indazol-4-yl)-4-methyl-2-(4-((S)-2-((R)-3-methylpyrrolidin-1-yl)propoxy)phenyl)-2H-chromen-6-ol]	65.9
0.83	77.8		CC1=C(c2cccc(O)c2)C(c2ccc(OC[C@H](C)N3CC[C@@H](C)C3)cc2)Oc2ccc3[nH]ncc3c21 (stereo partly drawn) [Example 14, 3-(9-Methyl-7-(4-((S)-2-((R)-3-methylpyrrolidin-1-yl)propoxy)phenyl)-3,7-dihydropyrano[3,2-e]indazol-8-yl)phenol]	62.3
		95.2	CC1=C(c2cnn(C)c2)C(c2ccc(OCCN3CC(CF)C3)cc2)Oc2ccc(O)cc21 (stereo not shown) [Example 42, 2-{4-[2-(3-Fluoromethyl-azetidin-1-yl)-ethoxy]-phenyl}-4-methyl-3-(1-methyl-1H-pyrazol-4-yl)-2H-chromen-6-ol]	
		97.4	CC1=C(c2ncc(C#N)cc2C)C(c2ccc(OCCN3CC(CF)C3)cc2)Oc2ccc(O)cc21 (stereo not shown) [Example 22, 2-{4-[2-(3-Fluoromethyl-azetidin-1-yl)-ethoxy]-phenyl}-4-methyl-3-(3-methyl-5-cyano-pyridin-2-yl)-2H-chromen-6-ol]	
		98.3	CC1=C(C2CCC(O)C2)C(c2ccc(OCCN3CC(CF)C3)cc2)Oc2ccc(O)cc21 (stereo not shown) [Example 46, 2-[4-[2-[3-(fluoromethyl)azetidin-1-yl]ethoxy]phenyl]-3-(3-hydroxycyclopentyl)-4-methyl-2H-chromen-6-ol]	
		97.9	CC1=C(C2=CCOC2)C(c2ccc(OCCN3CC(CF)C3)cc2)Oc2ccc(O)cc21 (stereo not shown) [Example 30, 3-(2,5-dihydrofuran-3-yl)-2-(4-(2-(3-(fluoromethyl)azetidin-1-yl)ethoxy)phenyl)-4-methyl-2H-chromen-6-ol]	

Structure (SMILES)	IC50 [1] [nM]	Emax [2] [%]	ER-alpha MCF7 Sinf (%) [3] [%]	MCF7 viab max response [1]
C[C@]12CC[C@@H]3c4ccc(O)cc4C[C@@H](CCCCCCCCC[S+]([O-])CCCC(F)(F)C(F)(F)F)[C@H]3[C@@H]1CC[C@@H]2O (stereo partly shown) [fulvestrant, reference compound]	0.56	93.6		74.6
